Assay results published in patent publication US20100279990A1, “ANTIPROLIFERATIVE COMPOUNDS, COMPOSITIONS AND METHODS OF USE” (RAMOT AT TEL-AVIV UNIVERSITY LTD., priority 2006, published 2010).

How the values were obtained:
RXF 944L = test: Monolayer Assay, PI: RXF 944L (Renal); assay type: cell-based, human
From the text: (§1) This example illustrates cell proliferation data in the form of IC50, IC70 and IC90 values obtained by exposure of human cancer cell-lines to compound (Ia). […].

human glioma U87 cells = test: Viability of human glioma U87 cell-line; assay type: cell-based; settings: FIG. 9
PAXF PANC1 = test: Monolayer Assay, PI: PAXF PANC1; assay type: cell-based, human
From the text: as §1

[1] = tested on: human colon carcinoma cells (HT29); test: HT29 human colon carcinoma s.c. tumor in Nude CD1 male mice; assay type: in vivo
From the text: This example illustrates the effect of several compounds, including an exemplary compound of the present invention, on tumor volume. tumor weight and body weight in mice. Nude CD1 male mice were purchased from Harlan (Israel). Animals were housed under controlled conditions (temperature, humidity) and were given food and water ad libitum. After one week of acclimatization animals were inoculated s.c. with human colon carcinoma cells (HT29) (2,000,000 cell/animals.). Therapy began 8 days after inoculation, at which time the animals were divided randomly into 4 groups (7-8 mice/group) and administered ip 3 times weekly for 4 weeks with the following compounds: […] Body weight and tumor volume were measured weekly. Tumor volume is defined as (shortest diameter)^2×(longest diameter)×0.5. At the end of the treatment, animals were sacrificed and tumors and organs collected and weighed.

PRXF PC3M = test: Monolayer Assay, PI: PRXF PC3M (Prostate); assay type: cell-based, human
From the text: as §1

[2] = tested on: human colon carcinoma cells (HT29); test: cells
[3] = tested on: human Jurkat lymphoma cells; test: Viability of human Jurkat lymphoma cells, dexamethasone alone and in combination; assay type: cell-based
LXF 529L = test: Monolayer Assay, PI: LXF 529L (Lung); assay type: cell-based, human
From the text: as §1

MEXF 276L = test: Monolayer Assay, PI: MEXF 276L (Melanoma); assay type: cell-based, human
From the text: as §1

LXF 629L = test: Monolayer Assay, PI: LXF 629L (Lung); assay type: cell-based, human
From the text: as §1

OVXF OVCAR3 = test: Monolayer Assay, PI: OVXF OVCAR3 (Ovarian Cancer); assay type: cell-based, human
From the text: as §1

[4] = tested on: LS1034 human colon MDR carcinoma cells; test: Viability of LS1034 human colon MDR carcinoma cells (FIG. 7B); assay type: cell-based
From the text: This example illustrates cell viability obtained by separately administering different concentrations of compound (Ia), sertraline, doxorubicin, cisplatin, fluorouracil (5-FU), methotrexate (MTX), and vincristin to LS1034 human colon MDR carcinoma cells. The results are depicted in FIG. 7B.

MAXF 401NL = test: Monolayer Assay, PI: MAXF 401NL (Breast); assay type: cell-based, human
From the text: as §1

PAXF 1657L = test: Monolayer Assay, PI: PAXF 1657L; assay type: cell-based, human
From the text: as §1

OVXF 1619L = test: Monolayer Assay, PI: OVXF 1619L (Ovarian Cancer); assay type: cell-based, human
From the text: as §1

CN[C@H]1CC[C@@H](c2ccc(Cl)c(Cl)c2)c2ccc(C#CCCCO)cc21 [compound (Ia), (1S-cis)-4-(3,4-dichlorophenyl)-7-(5-hydroxy-1-pentyn-1-yl)-1,2,3,4-tetrahydro-N-methyl-1-naphthalenamine hydroiodide]
Test/Control (%) (RXF 944L; 2.3 μg/ml): 103%
Test/Control activity class (RXF 944L; 2.3 μg/ml): − (− (T/C = 50))
Test/Control (%) (RXF 944L; 7.5 μg/ml): 9%
Test/Control activity class (RXF 944L; 7.5 μg/ml): +++ (+++ (T/C < 10))
Test/Control (%) (RXF 944L; 23. μg/ml): 3%
Test/Control activity class (RXF 944L; 23. μg/ml): +++ (+++ (T/C < 10))
Test/Control (%) (RXF 944L; 75. μg/ml): 3%
Test/Control activity class (RXF 944L; 75. μg/ml): +++ (+++ (T/C < 10))
Test/Control (%) (RXF 944L; .75 μg/ml): 94%
Test/Control activity class (RXF 944L; .75 μg/ml): − (− (T/C = 50))
effect on cell viability (human glioma U87 cells): inhibit this glioma cell-line in a dose dependant fashion
efficacy compared with paroxetine (human glioma U87 cells): higher efficacy than paroxetine
Test/Control (%) (PAXF PANC1; 2.3 μg/ml): 98%
Test/Control activity class (PAXF PANC1; 2.3 μg/ml): − (− (T/C = 50))
Test/Control (%) (PAXF PANC1; 7.5 μg/ml): 33%
Test/Control activity class (PAXF PANC1; 7.5 μg/ml): + (+ (30 <= T/C < 50))
Test/Control (%) (PAXF PANC1; 23. μg/ml): 3%
Test/Control activity class (PAXF PANC1; 23. μg/ml): +++ (+++ (T/C < 10))
Test/Control (%) (PAXF PANC1; 75. μg/ml): 4%
Test/Control activity class (PAXF PANC1; 75. μg/ml): +++ (+++ (T/C < 10))
Test/Control (%) (PAXF PANC1; .75 μg/ml): 105%
Test/Control activity class (PAXF PANC1; .75 μg/ml): − (− (T/C = 50))
tumor weight ([1]; HT29 tumor in nude mice, end of treatment, FIG. 17): very similar to the tumor weight of mice treated with 5 FU
tumor volume ([1]; HT29 tumor in nude mice, ip 3 times weekly, after 3 and 4 weeks of therapy, FIG. 16): significantly decreased compared to the control groups
decrease in body weight ([1]; compared to 5 FU or controls, FIG. 18): 10%
histopathological assessment of spleen, liver and kidney ([1]; end of treatment): change in capsule fibrosis at random
efficacy in inhibiting human colon cancer tumor growth ([1]; mice model, 30 mg/kg ip): high efficacy superior to sertraline
Test/Control (%) (PRXF PC3M; 2.3 μg/ml): 91%
Test/Control activity class (PRXF PC3M; 2.3 μg/ml): − (− (T/C = 50))
Test/Control (%) (PRXF PC3M; 7.5 μg/ml): 4%
Test/Control activity class (PRXF PC3M; 7.5 μg/ml): +++ (+++ (T/C < 10))
Test/Control (%) (PRXF PC3M; 23. μg/ml): 1%
Test/Control activity class (PRXF PC3M; 23. μg/ml): +++ (+++ (T/C < 10))
Test/Control (%) (PRXF PC3M; 75. μg/ml): 1%
Test/Control activity class (PRXF PC3M; 75. μg/ml): +++ (+++ (T/C < 10))
Test/Control (%) (PRXF PC3M; .75 μg/ml): 95%
Test/Control activity class (PRXF PC3M; .75 μg/ml): − (− (T/C = 50))
IC50 ([2]; HT-29, read-out: IC50, viability): 12.7 µM
viability at 30 µM ([2]; HT-29, read-out: cell viability): 30.9%
inhibition of cell viability compared with sertraline and paroxetine ([3]; FIG. 13A): higher than that produced by either sertraline or paroxetine
cytotoxicity at 20 µM ([3]; Homo sapiens, 20 μM alone, FIG. 13B, read-out: inhibition of cell viability): 69%
Test/Control (%) (LXF 529L; 2.3 μg/ml): 97%
Test/Control activity class (LXF 529L; 2.3 μg/ml): − (− (T/C = 50))
Test/Control (%) (LXF 529L; 7.5 μg/ml): 17%
Test/Control activity class (LXF 529L; 7.5 μg/ml): ++ (++ (10 <= T/C < 30))
Test/Control (%) (LXF 529L; 23. μg/ml): 3%
Test/Control activity class (LXF 529L; 23. μg/ml): +++ (+++ (T/C < 10))
Test/Control (%) (LXF 529L; 75. μg/ml): 5%
Test/Control activity class (LXF 529L; 75. μg/ml): +++ (+++ (T/C < 10))
Test/Control (%) (LXF 529L; .75 μg/ml): 93%
Test/Control activity class (LXF 529L; .75 μg/ml): − (− (T/C = 50))
Test/Control (%) (MEXF 276L; 2.3 μg/ml): 88%
Test/Control activity class (MEXF 276L; 2.3 μg/ml): − (− (T/C = 50))
Test/Control (%) (MEXF 276L; 7.5 μg/ml): 30%
Test/Control activity class (MEXF 276L; 7.5 μg/ml): + (+ (30 <= T/C < 50))
Test/Control (%) (MEXF 276L; 23. μg/ml): 4%
Test/Control activity class (MEXF 276L; 23. μg/ml): +++ (+++ (T/C < 10))
Test/Control (%) (MEXF 276L; 75. μg/ml): 5%
Test/Control activity class (MEXF 276L; 75. μg/ml): +++ (+++ (T/C < 10))
Test/Control (%) (MEXF 276L; .75 μg/ml): 95%
Test/Control activity class (MEXF 276L; .75 μg/ml): − (− (T/C = 50))
Test/Control (%) (LXF 629L; 2.3 μg/ml): 94%
Test/Control activity class (LXF 629L; 2.3 μg/ml): − (− (T/C = 50))
Test/Control (%) (LXF 629L; 7.5 μg/ml): 4%
Test/Control activity class (LXF 629L; 7.5 μg/ml): +++ (+++ (T/C < 10))
Test/Control (%) (LXF 629L; 23. μg/ml): 1%
Test/Control activity class (LXF 629L; 23. μg/ml): +++ (+++ (T/C < 10))
Test/Control (%) (LXF 629L; 75. μg/ml): 2%
Test/Control activity class (LXF 629L; 75. μg/ml): +++ (+++ (T/C < 10))
Test/Control (%) (LXF 629L; .75 μg/ml): 99%
Test/Control activity class (LXF 629L; .75 μg/ml): − (− (T/C = 50))
Test/Control (%) (OVXF OVCAR3; 2.3 μg/ml): 103%
Test/Control activity class (OVXF OVCAR3; 2.3 μg/ml): − (− (T/C = 50))
Test/Control (%) (OVXF OVCAR3; 7.5 μg/ml): 78%
Test/Control activity class (OVXF OVCAR3; 7.5 μg/ml): − (− (T/C = 50))
Test/Control (%) (OVXF OVCAR3; 23. μg/ml): 4%
Test/Control activity class (OVXF OVCAR3; 23. μg/ml): +++ (+++ (T/C < 10))
Test/Control (%) (OVXF OVCAR3; 75. μg/ml): 5%
Test/Control activity class (OVXF OVCAR3; 75. μg/ml): +++ (+++ (T/C < 10))
Test/Control (%) (OVXF OVCAR3; .75 μg/ml): 109%
Test/Control activity class (OVXF OVCAR3; .75 μg/ml): − (− (T/C = 50))
effect on resistant cancer cells [4]: has the ability to suppress resistant cancer cells
Test/Control (%) (MAXF 401NL; 2.3 μg/ml): 70%
Test/Control activity class (MAXF 401NL; 2.3 μg/ml): − (− (T/C = 50))
Test/Control (%) (MAXF 401NL; 7.5 μg/ml): 9%
Test/Control activity class (MAXF 401NL; 7.5 μg/ml): +++ (+++ (T/C < 10))
Test/Control (%) (MAXF 401NL; 23. μg/ml): 3%
Test/Control activity class (MAXF 401NL; 23. μg/ml): +++ (+++ (T/C < 10))
Test/Control (%) (MAXF 401NL; 75. μg/ml): 3%
Test/Control activity class (MAXF 401NL; 75. μg/ml): +++ (+++ (T/C < 10))
Test/Control (%) (MAXF 401NL; .75 μg/ml): 103%
Test/Control activity class (MAXF 401NL; .75 μg/ml): − (− (T/C = 50))
Test/Control (%) (PAXF 1657L; 2.3 μg/ml): 92%
Test/Control activity class (PAXF 1657L; 2.3 μg/ml): − (− (T/C = 50))
Test/Control (%) (PAXF 1657L; 7.5 μg/ml): 40%
Test/Control activity class (PAXF 1657L; 7.5 μg/ml): + (+ (30 <= T/C < 50))
Test/Control (%) (PAXF 1657L; 23. μg/ml): 6%
Test/Control activity class (PAXF 1657L; 23. μg/ml): +++ (+++ (T/C < 10))
Test/Control (%) (PAXF 1657L; 75. μg/ml): 5%
Test/Control activity class (PAXF 1657L; 75. μg/ml): +++ (+++ (T/C < 10))
Test/Control (%) (PAXF 1657L; .75 μg/ml): 96%
Test/Control activity class (PAXF 1657L; .75 μg/ml): − (− (T/C = 50))
Test/Control (%) (OVXF 1619L; 2.3 μg/ml): 88%
Test/Control activity class (OVXF 1619L; 2.3 μg/ml): − (− (T/C = 50))
Test/Control (%) (OVXF 1619L; 7.5 μg/ml): 2%
Test/Control activity class (OVXF 1619L; 7.5 μg/ml): +++ (+++ (T/C < 10))
Test/Control (%) (OVXF 1619L; 23. μg/ml): 1%
Test/Control activity class (OVXF 1619L; 23. μg/ml): +++ (+++ (T/C < 10))
Test/Control (%) (OVXF 1619L; 75. μg/ml): 1%
Test/Control activity class (OVXF 1619L; 75. μg/ml): +++ (+++ (T/C < 10))
Test/Control (%) (OVXF 1619L; .75 μg/ml): 98%
Test/Control activity class (OVXF 1619L; .75 μg/ml): − (− (T/C = 50))
